“Also recorded” adds a separate entry of the source. Where no end group is shown, it is not given here.
What was measured:
[1] = system: rat aortic endothelium; assay: Measurement of NO release from rat aortic segments; settings: for Increase in NO release above basal: basal 1.85±0.18; for Induced production of NO after treating the endothelium with L-NAME: L-NAME 400 μM
From the text: FIG. 5. Measurement of NO release from rat aortic segments. […] All values are expressed as means± SEM. Numbers at bottom of bars are numbers of separate experiments per group. *p<0.05, **p<0.01, from basal values. FIG. 10. Measurement of NO release from rat aortic segments. […] All values are expressed as means± SEM. Numbers at bottom of bars are numbers of separate experiments per group. *p<0.05, **p<0.01, from basal values. FIG. 17. Measurement of NO release from rat aortic segments. […] All values are expressed as means± SEM. Numbers at bottom of bars are numbers of separate experiments per group. **p<0.01, from basal values. PMN adherence to coronary vascular endothelium was also evaluated within the assessment of total intravascular and infiltrated PMNs. […] NO release from rat aortic endothelium was measured to determine if PKC ζ peptide inhibitor provides cardioprotection by a mechanism involving increased endothelial NO release. […] The eNOS inhibitor, L-NAME, was used as another control in order to decrease basal release of NO to zero.

[2] = system: fMLP-stimulated rat PMNs; assay: Superoxide release from fMLP-stimulated rat PMNs; type: cell-based; settings: for Superoxide release (absorbance): fMLP-stimulated PMNs alone 0.13±0.01
Experimental: FIG. 11. Superoxide release from rat PMNs. Superoxide release was measured from 5×10^6 PMNs after formyl-methionyl-leucyl-phenylalanine (fMLP) (200 nM) stimulation. SOD (10 μg/ml) was employed as a positive control. The change in absorbance (Δ) was measured 90 sec after fMLP addition (peak response). […] All values are means± SEM. Numbers at bottom of bars are numbers of separate experiments per group.

[3] = system: isolated perfused rat hearts (I/R+PMNs); assay: Isolated perfused rat heart, 20 min ischemia / 45 min reperfusion with PMNs: cardiac contractile function (LVDP, +dP/dtmax, LVEDP); settings: for LVDP of initial baseline (initial depression): 15 min into reperfusion; for Protective effect on +dP/dt max in the presence of L-NAME (in words) / Protective effect on LVDP in the presence of L-NAME (in words): with L-NAME; for PMN-induced contractile dysfunction / decrease in +dP/dt max (in words): final +dP/dt max after reperfusion; for PMN-induced contractile dysfunction / decrease in +dP/dt max (in words) / PMN-induced contractile dysfunction / decrease in LVDP (in words): vs I/R+PMNs; for PMN-induced contractile dysfunction / decrease in LVDP (in words): final LVDP, 45 min post reperfusion
Experimental: (§1) Data were recorded every 5 min for 45 min post-reperfusion. After each experiment, the left ventricle was isolated, fixed in 4% paraformaldehyde and stored at 4° C. for later histological analysis.

[4] = system: PMN infiltration into the myocardium of isolated perfused rat hearts; assay: Histological assessment of total intravascular and infiltrated PMNs in post-reperfusion cardiac tissue
Experimental: FIG. 4a. Histological assessment of total intravascular and infiltrated PMNs in isolated perfused rat heart samples taken from 3 rats per group and 10 areas per heart. […] Hatched boxes represent non-PMN perfused hearts and black boxes represent PMN-perfused hearts. **P<0.01, from I/R+PMNs.
as §1
The cardiac injury associated with I/R in this model was closely correlated with the substantial number of PMNs infiltrating the myocardium within the 45 min reperfusion period. During reperfusion, a significant number of PMNs transmigrated into the myocardium, increasing from less than 25 PMN/mm^2 in Sham I/R hearts to more than 180 PMN/mm^2 in I/R+PMN hearts at the end of the reperfusion period (FIG. 4a).

[5] = system: PMA-stimulated rat PMNs; assay: Superoxide release from PMA-stimulated rat PMNs; type: cell-based; settings: for Superoxide release vs PMA-stimulated rat PMNs (in words): 1 μM; for Superoxide release (absorbance): PMA-stimulated PMNs alone 0.49±0.03; for Superoxide release after PMA (15 nM) stimulation (in words): 360 sec after PMA
Experimental: (§2) FIG. 6. Superoxide release from rat PMNs. Superoxide release was measured from 5×10^6 PMNs after phorbol-12-myristate-13-acetate (PMA) (15 nM) stimulation. Superoxide dismutase (SOD) (10 μg/ml) was employed as a positive control. The change in absorbance (Δ) was measured 360 sec after PMA addition (peak response). […] All values are means± SEM. Numbers at bottom of bars show the numbers of separate experiments per group.
as §2, with “18.” for “6.”, “PMA” for “phorbol-12-myristate-13-acetate (PMA)”, “SOD” for “Superoxide dismutase (SOD)”
FIG. 22. Superoxide release from rat PMNs. Superoxide release was measured from 5×10^6 PMNs after PMA (15 nM) stimulation. The change in absorbance (Δ) was measured 360 sec after PMA addition (peak response). […] All values are means± SEM. Numbers at bottom of bars show the numbers of separate experiments per group.

[6] = system: PMN adherence to coronary vascular endothelium; assay: Histological assessment of intravascular PMNs adhering to the coronary vasculature; set-up: species or system rat
Experimental: FIG. 4b. Histological assessment of intravascular PMNs that adhered to the coronary vasculature in isolated perfused rat heart samples taken from 3 rats per group
and 10 areas per heart. […] Hatched boxes represent non-PMN perfused hearts and black boxes represent PMN-perfused hearts. All values are mean numbers of PMNs/mm^2 of heart area± SEM.
PMN adherence to coronary vascular endothelium was also evaluated within the assessment of total intravascular and infiltrated PMNs. […] NO release from rat aortic endothelium was measured to determine if PKC ζ peptide inhibitor provides cardioprotection by a mechanism involving increased endothelial NO release. […] The eNOS inhibitor, L-NAME, was used as another control in order to decrease basal release of NO to zero.

[7] = I/R+PMN hearts, 1 μM, 45 min post-reperfusion
[8] = I/R+PMN hearts, 5 μM, 45 min post-reperfusion
[9] = I/R+PMN hearts, 10 μM + L-NAME 50 μM, 45 min post-reperfusion
[10] = I/R+PMN hearts, 10 μM, 45 min post-reperfusion
[11] = I/R+PMN hearts, 2.5 μM, 45 min post-reperfusion
[12] = I/R+PMN hearts, 5 μM + L-NAME 50 μM, 45 min post-reperfusion

Molecule | LVDP of I/R+PMN group compared to treated I/R+PMN group (time course) ([3]; 10 μM, reperfusion 0 to 45 min) | +dP/dtmax recovered to, of initial baseline [3, 7] [%] | LVDP recovered to, of initial baseline [3, 7] [%] | +dP/dtmax recovered to, of initial baseline [3, 8] [%] | LVDP recovered to, of initial baseline [3, 8] [%] | LVDP of initial baseline (initial depression) ([3]; I/R+PMN hearts, 10 μM) [%] | +dP/dtmax recovered to, of initial baseline [3, 10] [%] | LVDP recovered to, of initial baseline [3, 10] [%] | Protective effect on +dP/dt max in the presence of L-NAME (in words) ([3]; I/R+PMN hearts) | Protective effect on LVDP in the presence of L-NAME (in words) ([3]; I/R+PMN hearts) | PMN-induced contractile dysfunction / decrease in +dP/dt max (in words) [3] | PMN-induced contractile dysfunction / decrease in LVDP (in words) [3] | Endothelial NO release vs basal NO release (in words) [1] | Induced production of NO after treating the endothelium with L-NAME [1] | Total intravascular and infiltrated PMNs vs I/R+PMNs (in words) ([4]; I/R+PMN hearts) | Superoxide release vs PMA-stimulated rat PMNs (in words) [5] | Superoxide release after PMA (15 nM) stimulation (in words) [5] | further results
CC(=O)OCC[N+](C)(C)C [Acetylcholine, reference compound] |  |  |  |  |  |  |  |  |  |  |  |  |  |  |  |  |  | Increase in NO release compared to basal NO release ([1]; 200 nM (positive control)): 67±4%; Increase in NO release above basal ([1]; 500 nM (positive control)): 3.75±0.58 pmoles NO/mg tissue
PKC βII peptide inhibitor: peptide inhibitor of protein kinase C beta II; preferred sequence SEQ ID NO: 1, preferably myristoylated (SLNPEWNET; not fully specified; listed as Homo sapiens) | significant and sustained reduction | 53±6 | 57±4 | 63±7 | 69±7 | 61±10 | 79±10 | 82±9 | blocked | significantly blocked | attenuated | attenuated | significantly increased; also recorded: significantly more NO | completely inhibited |  |  |  | Inhibition of superoxide (in words) ([2]; 1 μM): no significant inhibition; Superoxide release (absorbance) ([2]; 5 μM): 0.05±0.009; Superoxide release (absorbance) ([2]; 10 μM): 0.02±0.004; Superoxide release (absorbance) ([2]; 20 μM): 0.02±0.007; Superoxide release after fMLP (200 nM) stimulation (in words) ([2]; 5, 10 and 20 μM, 90 sec after fMLP): significantly inhibited; +dP/dtmax of initial baseline [3, 9]: 53±5%; LVDP of initial baseline [3, 9]: 56±2%; Increase in NO release above basal ([1]; 1 μM): 0.75±0.19 pmoles NO/mg tissue; Increase in NO release above basal ([1]; 2.5 μM): 1.91±0.44 pmoles NO/mg tissue; Increase in NO release above basal ([1]; 5 μM): 2.54±0.29 pmoles NO/mg tissue; Increase in NO release above basal ([1]; 10 μM): 3.49±0.62 pmoles NO/mg tissue
PKC δ peptide activator: peptide activator of protein kinase C delta; preferred sequence SEQ ID NO: 3, preferably myristoylated (MRAAEDPM; not fully specified; listed as Homo sapiens) | significant and sustained reduction | 51±5 | 60±13 | 67±7 | 80±9 | 58±8 | 79±5 | 83±3 |  |  | attenuated | attenuated |  |  | attenuated | no significant inhibition | significantly inhibited | Superoxide release (absorbance) ([5]; 5 μM): 0.32±0.03; Superoxide release (absorbance) ([5]; 10 μM): 0.32±0.02; PMNs adhering to the coronary vasculature vs I/R+PMN hearts (in words) [6]: attenuated; LVEDP of I/R+PMN group compared to treated I/R+PMN group (time course) ([3]; 10 μM, reperfusion 0 to 45 min): significant and sustained elevation
PKC ζ peptide inhibitor: peptide inhibitor of protein kinase C zeta; preferred sequence SEQ ID NO: 2, preferably myristoylated; from Genemed Synthesis (SIYRRGARRWRKL; not fully specified; listed as Homo sapiens) |  | 46±6 | 57±10 | 76±5 | 84±4 |  |  |  | blocked | significantly blocked | attenuated | attenuated | significantly increased | completely inhibited | significantly attenuated | no difference | significantly inhibited | Infiltrated PMNs compared to 1 μM treated hearts ([4]; 2.5 and 5 μM treated hearts): significantly fewer infiltrated PMNs; Reduction in PMN infiltration into post-reperfused cardiac tissue ([4]; I/R+PMN hearts, 1 μM): 20±6%; Reduction in PMN infiltration into post-reperfused cardiac tissue ([4]; I/R+PMN hearts, 2.5 μM): 46±4%; Reduction in PMN infiltration into post-reperfused cardiac tissue ([4]; I/R+PMN hearts, 5 μM): 48±3%; Effect on PMN infiltration in the presence of L-NAME (in words) ([4]; I/R+PMN hearts, with L-NAME): blocked; Inhibition of PMN superoxide release ([5]; 15 μM): 82%; Inhibition of superoxide release ([5]; 2.5-15 μM, PMA 15 nM): 33-82%; Reduction in adherent PMNs to the coronary endothelium (not significant, p<0.06) ([6]; I/R+PMN hearts, 5 μM): 43±10%; LVDP of I/R+PMN group compared to treated I/R+PMN group (time course) ([3]; 5 μM, reperfusion 0 to 45 min): significant and sustained reduction; +dP/dtmax recovered to, of initial baseline [3, 11]: 75±5%; LVDP recovered to, of initial baseline [3, 11]: 83±4%; +dP/dtmax recovered to, of initial baseline [3, 12]: 54±9%; LVDP recovered to, of initial baseline [3, 12]: 58±7%; Lowest effective dose ([3]; I/R+PMN hearts, LVDP and +dP/dtmax): 2.5 µM; NO release compared to basal NO release ([1]; 1 μM): not significantly different; Increase in NO release compared to basal NO release ([1]; 2.5 μM): 47±2%; Increase in NO release compared to basal NO release ([1]; 5 μM): 54±5%; NO release from endothelium removed (denuded) rat aortic segments ([1]; 5 μM, denuded segments): not different from L-NAME-treated segments; Increase in NO release compared to basal NO release ([1]; 15 μM): 91±15%

Reference: patent US9029078B2, “Perfusion and/or preservation solution for organs” (Philadelphia College of Osteopathic Medicine, priority 2005, dated 2015)
